The values that follow come from paper PMC12973313 (Chemical Science, 2026).

Structures are written as SMILES. Converted amounts (≈) assume the structure as drawn. Read-outs that look alike come from different tables or passages of the source.

The nature of one series: Haemolysis assay. It is filed as cell-based. Conditions: human, human red blood cells (erythrocytes), pH 7.4, 1.39 mM total molecular concentration, 37 °C.
On the set-up of series [1]: method as in PMID 29633393. Conditions: DMSO-d6 1% DCM, 112 mM, 298 K; proportion NMR silent; cited from earlier work.
For series [2] the following is noted: 1H NMR DOSY, DMSO-d6 0.5% H2O, 112 mM, 298 K; cited from earlier work.
On the set-up of series [3]: method as in PMID 29633393. Conditions: equal K/dimerization model, DMSO-d6 0.5% H2O; cited from earlier work.
Details of series [4]: method as in PMID 29633393. Conditions: D2O 5% EtOH, 5.56 mM, 298 K; cited from earlier work.
Series [5] can be described thus: Cl-/NO3- antiport assay, chloride ISE. The series is classed as biochemical. Conditions: pH 7.2; for EC50 Cl-/NO3- antiport: 50% chloride efflux after 270 s; for n (Hill coefficient): Hill analysis. The source says: Although evidence supports the hypothesis that SSAs are able to act as selective phospholipid membrane coordination and/or disruption agents,[39] to date we have minimal evidence that verifies the role ion transport events may play in the SSA mechanism of biological activity, or the types of transmembrane SSA structures which may be involved in facilitating these events, such as ion channels or membrane pores. Therefore, to confirm the role ion transport may play in the biological activity of SSAs, we explored the ability of SSAs 1, 3, 5, 7, and 9 to mediate ion transport in phospholipid vesicles (Section S17). We initially performed a Cl^−/NO3^− antiport assay.[52] Large unilamellar vesicles composed of 1-palmitoyl-2-oleoyl-sn-glycero-3-phosphocholine (POPC) were prepared containing NaCl (ionic strength = 500 mM) buffered to pH 7.2 with sodium phosphate salts. The vesicles were suspended in NaNO3 (ionic strength = 500 mM) at pH 7.2 (Fig. 4a). On addition of the SSA as a 5 mM DMSO stock solution (which was maintained throughout these experiments to minimise any variation in aggregation state induced by changes in concentration), any resulting chloride efflux was detected using a chloride ion selective electrode (ISE). All of these molecules but compound 1 (Section S17) mediated a modest amount of chloride efflux when added at 10 mol% w.r.t. lipid (Fig. 4b and c)which is surprising given the negative charge of the SSA anion. […] We were unable to observe significant transport activity when these compounds were added as a stock solution dissolved in water (5 mM). […]
Section S3: Biological methods
Preparation of vesicles: A stock solution of 1-palmitoyl-2-oleoyl-sn-glycero-3-phosphocholine (POPC) was prepared by dissolving 1 g of POPC in 35 mL de-acidified CHCl3. The CHCl3 was passed through a column of basic alumina before use. This solution was stored at -20 °C when […]
A lipid film of POPC was prepared by adding 1–4 mL of the above stock solution into a pre-weighed falcon tube and gently removing the CHCl3 under a stream of nitrogen. The lipid film was dried under vacuum overnight. The lipid film was re-hydrated by vortexing with the desired internal buffer solution, then subjected to 9 freeze-thaw cycles. Typically, the lipids were not thawed on the last cycle and were stored at -20 °C for use at a later date.
The lipid was thawed to room temperature and allowed to stand for 30 mins, then extruded 27 times through a 200 nm polycarbonate membrane. The resulting unilamellar vesicles were dialysed against the desired external buffer solution for a minimum of 2 hours.
Transport experiments protocol: The vesicles prepared as described above were diluted to a known volume of 5 mL using the desired external buffer solution. This solution was further diluted into individual 5 mL samples for testing at a final lipid concentration of 1 mM. The transporter was added to the vesicles from a stock solution in DMSO (5 mM) after 30 s in order to initiate the transport and any resulting chloride efflux was monitored using a chloride selective electrode (ISE – Cole Parmer). At the end of the experiment, the vesicles were lysed by the addition of 40 µL Triton-X 100 (10 wt% in H2O). The final electrode reading was taken 2 mins later and used to calibrate 100% chloride efflux. Each experiment was performed 3 […]
Section S17: Ion transport studies
Cl-/NO3- antiport Hill plots – pH 7.2
Internal buffer: 500 mM NaCl buffered to pH 7.2 with 5 mM sodium phosphate salts.
External buffer: 500 mM NaNO3 buffered to pH 7.2 with 5 mM sodium phosphate salts.
Figure S134 - Transport data for the Cl-/NO3- antiport Hill plot experiment with compound 1.
Full Hill analysis was not performed due to the low observed activity of this compound.
(1 picture or pasted object on this page, not shown here)

Series [6] is described as follows: Kinetic solubility in PBS pH 7.4. Conditions: upper limit 300 µM. It is filed as physicochemical.
Series [7] can be described thus: Metabolic stability in liver microsomes. It is filed as in vitro ADME, mouse. The method, then: Following this, the metabolic stability of 9 was determined against mouse, rat, and human liver microsomes. […] Within this assay the stability of the intact parent compound is monitored with respect to time, during incubation at 37 °C in the presence and absence of the co-factor NADPH – required for cytochrome p450 activity.
Metabolic Stability in Rat, Mouse and Human Liver Microsomes:
The metabolic stability of compounds at a concentration of 1 µM, in rat, mouse and human liver microsomes (BD Gentest, Franklin Lakes NJ) was measured following incubation with […]
(NADPH) at 37 °C. Aliquots of each incubation were removed at 0.5, 5, 15, 30 and 60 minutes. The reaction was stopped by the addition of cold acetonitrile containing analytical […]
Samples were then centrifuged at 3,220 g for 40 minutes. The supernatant was aliquoted and added to ultra-pure H2O in a 1:1 ratio in preparation for LC-MS/MS analysis.
Incubations were conducted in duplicate; control incubations (substituting PBS for NADPH) were conducted simultaneously.
Samples were analysed using a Shimadzu Shimadzu Nexera LC Binary Gradient LC-30AD (Shimadzu Inc, Kyoto), coupled to a Sciex 5500 mass spectrometer (AB Inc., Illinois) for rat and mouse microsomes and a Sciex 6500+ for human microsomes. Separation achieved using an XSelect HSS T3 column (2.5µm, 50 x 2.1 mm) (Waters Ltd., Wilmslow) at a temperature of 40°C and a binary mobile phase gradient at a flow rate of 0.7 mL/min. Initial […]
(0.1% formic acid in acetonitrile).
0.5 minutes and then immediately returned to initial conditions. Sample analysis was by electrospray ionisation combined with multiple reaction monitoring in positive ion mode.
The ionspray voltage was 5500V.
Bi-directional Permeability in Caco-2 Cell Line: […]
(Microsomes from liver hold many membrane-bound enzymes, among them those of drug oxidation.)

Protocol for Haemolysis assay: Preparation of 96-well plate: Protocol modified from Travis et al.4 Heparinised human red blood cells collected from a volunteer and washed three times in PBS (pH 7.4). Compounds were serial diluted using PBS buffer across a 96-well V bottom Greiner plate. Negative control (100 µL PBS), and positive control (100 µL 0.1 % (v/v) Triton-X-100) were added to the plate.
100 µL of 10 % (v/v) of blood suspension added to all wells. Plates were incubated for 60 minutes at 37 °C. After incubation, plates were centrifuged for 15 minutes at 4680 rpm. The resultant supernatant was then transferred to a 96-well flat bottom plate and absorbance read at 540 nm (Fluostar Omega). Percent haemolysis was calculated using the formula as
Equation S2 - Percentage haemolysis calculation.
Haemolysis (%) = 𝐴𝑠𝑎𝑚𝑝𝑙𝑒 − 𝐴𝑛𝑒𝑔𝑎𝑡𝑖𝑣𝑒 𝑋 100

`O=C(O)CNC(=O)Nc1ccc(C(F)(F)F)cc1` [SSA 1] displayed a hemolysis at 60 min, 1.39 mM in “Haemolysis assay” of 0.29%. Further, in series [1], the “Q NMR (%) SSA anion” value was 0 (ref. [30]) % and the “Q NMR (%) SSA cation” value is 0 (ref. [30]) %. The “dH (nm)” value in series [2] is 1.3 (ref. [30]) nm. For the same compound, in series [3], the “Kdim (M^-1)” value was 41 (±1.3%)[30] M^−1. Also, the “Q NMR (%) SSA anion” value in series [4] is 68 (ref. [30]) %.
With `CC(C)CC(NC(=O)Nc1ccc(C(F)(F)F)cc1)C(=O)O` (stereo not drawn) [SSA 3], the “EC50 Cl-/NO3- antiport” value in series [5] was above 15 mol% w.r.t. lipid. Further, the “n (Hill coefficient)” value in series [5] (listed as 3) is 1.4.
On to `CC(C)CC(NC(=O)Nc1ccc(C(F)(F)F)cc1)C(=O)O` (stereo not drawn) [SSA 5], for which the “EC50 Cl-/NO3- antiport” value in series [5] is above 15 mol% w.r.t. lipid. Besides, the “n (Hill coefficient)” value in series [5] (listed as 5) stood at 1.7.
For `O=C(Nc1ccc(C(F)(F)F)cc1)N[C@@H](Cc1ccccc1)C(=O)O` [SSA 7], in series [5], the “EC50 Cl-/NO3- antiport” value was above 15 mol% w.r.t. lipid and the “n (Hill coefficient)” value was 1.4. Also, in “Haemolysis assay”, the hemolysis at 60 min, 1.39 mM is 0.47%.
As usually defined, the solubility is how much of the substance goes into solution per volume. Low values mean a poorly soluble substance, high ones a readily soluble substance. The microsomal CLint is the rate of metabolic loss divided by the concentration. High values mean faster metabolism, low ones greater metabolic stability. `O=C(Nc1ccc(C(F)(F)F)cc1)N[C@H](Cc1ccccc1)C(=O)O` [SSA 9]: in series [5], the “EC50 Cl-/NO3- antiport” value is above 15 mol% w.r.t. lipid and the “n (Hill coefficient)” value turned out to be 1.3. This compound showed a solubility at 2 h in series [6] (phosphate buffered saline, 25 °C, pH 7.4, aqueous buffer, kinetic from dmso stock) of 271 µM (≈ 95.5 µg/mL). The “Solubility in PBS pH 7.4 (μM)” value in series [6] (25°C, 2 hours) stood at 271 μM. Further, in series [7] (liver microsomes, mouse microsomes), the microsomal CLint at 1 µM is below 7.5 µL/min/mg. In series [7] (mouse), the “Hepatic Extraction Ratio (ER)” value was below 0.26 and the “Predicted Hepatic CLH” value is reported as below 23.07 mL/min/kg. The “In vitro t1/2” value in series [7] (mouse, 1 µM, 0.5 mg protein/mL) is above 3.0797 h. For the same compound, in series [7] (mouse, +Cofactors), the “Remaining percentage (%) 0.5 min” value is recorded as 100.00%, the “Remaining percentage (%) 5 min” value turned out to be 101.43%, the “Remaining percentage (%) 15 min” value is on record as 97.80% and the “Remaining percentage (%) 30 min” value is 99.51%. In addition, the “Remaining percentage (%) 60 min” value in series [7] (mouse, +Cofactors) was 99.55%. In series [7] (mouse, -Cofactors), the “Remaining percentage (%) 0.5 min” value came to 100.00% and the “Remaining percentage (%) 60 min” value was 101.52%. Besides, the half-life at 1 µM in series [7] (mouse, liver microsomes, mouse, 1 µM, 0.5 mg protein/mL, read-out: In vitro t1/2) is above 3.08 h. Also, the CLint scaled at 1 µM in series [7] (mouse, liver microsomes, read-out: Scale-up CLint) was below 31 mL/min/kg.
